Values of other authors as cited in patent publication US20150105473A1, “AN ANTIBACTERIAL COMPOSITION WITH LOW AMOUNTS OF SURFACTANT AND ANTIBACTERIAL ACTIVES” (The Dial Corporation, priority 2013, published 2015).

Compound: Oc1cc(Cl)ccc1Oc1ccc(Cl)cc1Cl [triclosan]
- solubility in water: poor solubility in water
